According to patent US20230103791A1 (GLAXOSMITHKLINE INTELLECTUAL PROPERTY DEVELOPMENT LIMITED, priority 2019, published 2023):

The compounds below were run against T1, human Nav1.8 (Homo sapiens, UniProt Q9Y5Y9) (assay: Nav1.8 sodium channels assay, QPatch 48 HTX electrophysiology in HEK293-Nav1.8 cells). Conditions: Table 1; HEK293-Nav1.8, QPatch 48 HTX, half inactivation state voltage protocol (V1/2); single run or average of two or more runs; read-out: Nav1.8 pIC50 (converted).
T1 construct: expressed in transfected cells; host or cells: HEK293 (HEK293-Nav1.8)
Format: cell-based
How it was run: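 IC50 came from 6-8 point curves of P2 current amplitude, normalized to baseline and a positive reference, and corrected for run-down using vehicle-only wells. Automated patch clamp used HEK293-Nav1.8 (with Navβ1 and TREK1) at pH 7.4 outside and CsF-based solution inside. An 8 s inactivating step at −46 mV preceded the 0 mV test pulse, repeated at 0.07 Hz.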

T1 sequence (Q9Y5Y9 whole entry): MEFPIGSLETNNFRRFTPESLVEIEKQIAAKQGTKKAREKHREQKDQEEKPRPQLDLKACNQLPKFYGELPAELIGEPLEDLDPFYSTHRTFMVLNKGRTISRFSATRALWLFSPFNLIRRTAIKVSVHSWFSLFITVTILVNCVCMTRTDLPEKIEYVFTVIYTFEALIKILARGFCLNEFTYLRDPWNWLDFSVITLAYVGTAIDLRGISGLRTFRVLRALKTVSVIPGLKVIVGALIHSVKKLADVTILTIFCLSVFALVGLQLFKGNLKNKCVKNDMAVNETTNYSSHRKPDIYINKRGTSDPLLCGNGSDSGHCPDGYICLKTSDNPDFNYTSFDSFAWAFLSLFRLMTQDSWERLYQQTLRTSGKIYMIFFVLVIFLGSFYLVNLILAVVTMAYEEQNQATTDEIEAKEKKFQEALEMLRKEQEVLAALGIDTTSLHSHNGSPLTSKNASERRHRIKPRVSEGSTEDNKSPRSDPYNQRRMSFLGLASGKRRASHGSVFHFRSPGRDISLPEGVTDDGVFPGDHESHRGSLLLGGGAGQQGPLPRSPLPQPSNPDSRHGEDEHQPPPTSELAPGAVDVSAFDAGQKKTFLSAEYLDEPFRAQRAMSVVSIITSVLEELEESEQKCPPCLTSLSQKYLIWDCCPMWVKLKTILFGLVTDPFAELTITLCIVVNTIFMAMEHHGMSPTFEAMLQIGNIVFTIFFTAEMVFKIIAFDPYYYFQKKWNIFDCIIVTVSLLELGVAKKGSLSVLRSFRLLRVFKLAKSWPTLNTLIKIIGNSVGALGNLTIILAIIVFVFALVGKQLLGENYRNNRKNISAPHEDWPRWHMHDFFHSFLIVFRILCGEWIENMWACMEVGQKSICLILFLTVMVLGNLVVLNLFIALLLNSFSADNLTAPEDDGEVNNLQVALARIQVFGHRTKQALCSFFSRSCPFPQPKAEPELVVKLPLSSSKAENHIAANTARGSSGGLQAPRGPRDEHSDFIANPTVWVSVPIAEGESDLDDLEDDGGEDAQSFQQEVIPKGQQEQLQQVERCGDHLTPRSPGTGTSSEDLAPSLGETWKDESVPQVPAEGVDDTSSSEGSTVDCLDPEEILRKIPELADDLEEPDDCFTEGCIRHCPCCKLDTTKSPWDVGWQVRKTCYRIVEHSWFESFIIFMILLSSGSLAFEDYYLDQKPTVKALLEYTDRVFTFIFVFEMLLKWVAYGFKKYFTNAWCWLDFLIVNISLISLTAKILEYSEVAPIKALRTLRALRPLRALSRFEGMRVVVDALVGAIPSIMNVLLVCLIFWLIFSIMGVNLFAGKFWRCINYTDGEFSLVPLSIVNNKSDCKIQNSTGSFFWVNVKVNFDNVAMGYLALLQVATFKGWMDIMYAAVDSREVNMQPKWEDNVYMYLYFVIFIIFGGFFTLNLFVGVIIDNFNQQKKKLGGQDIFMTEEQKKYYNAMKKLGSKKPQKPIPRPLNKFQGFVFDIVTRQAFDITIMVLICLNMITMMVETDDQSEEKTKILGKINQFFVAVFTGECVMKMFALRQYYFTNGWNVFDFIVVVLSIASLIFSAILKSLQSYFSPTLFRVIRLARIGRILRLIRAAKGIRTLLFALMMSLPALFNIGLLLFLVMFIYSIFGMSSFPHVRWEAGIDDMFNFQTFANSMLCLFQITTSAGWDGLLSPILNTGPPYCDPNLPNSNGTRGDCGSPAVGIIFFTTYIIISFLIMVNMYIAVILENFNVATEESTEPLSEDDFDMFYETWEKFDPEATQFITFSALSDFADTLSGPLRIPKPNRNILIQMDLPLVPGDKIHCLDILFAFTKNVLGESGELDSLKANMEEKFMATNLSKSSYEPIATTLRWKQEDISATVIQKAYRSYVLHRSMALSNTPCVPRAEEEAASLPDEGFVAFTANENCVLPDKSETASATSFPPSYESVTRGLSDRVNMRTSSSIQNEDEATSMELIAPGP
T1 sequence (Q07699 19-218 partner): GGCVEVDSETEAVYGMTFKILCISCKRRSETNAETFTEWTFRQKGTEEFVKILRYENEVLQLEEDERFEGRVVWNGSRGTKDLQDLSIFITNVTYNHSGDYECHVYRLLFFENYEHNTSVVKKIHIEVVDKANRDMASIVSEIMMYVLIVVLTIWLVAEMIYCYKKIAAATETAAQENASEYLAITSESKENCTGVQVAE

| Structure (SMILES) | IC50 [nM] |
| --- | --- |
| Cc1cc(F)ccc1N1CN(c2ccc(=O)[nH]c2)C(=O)c2ccc(C(F)(F)F)cc21 [drawing 261, 1-(4-fluoro-2-methylphenyl)-3-(6-oxo-1,6-dihydropyridin-3-yl)-7-(trifluoromethyl)-2,3-dihydroquinazolin-4(1H)-one] | 126 |
| O=C1c2ccc(C(F)(F)F)cc2N(c2ccc(F)cc2)CN1c1ccc(=O)[nH]c1 [drawing 262, 1-(4-fluorophenyl)-3-(6-oxo-1,6-dihydropyridin-3-yl)-7-(trifluoromethyl)-2,3-dihydroquinazolin-4(1H)-one] | 398 |
| O=C1c2ccc(C(F)(F)F)cc2N(C2CCCCC2)CN1c1ccc(=O)[nH]c1 [drawing 263, 1-cyclohexyl-3-(6-oxo-1,6-dihydropyridin-3-yl)-7-(trifluoromethyl)-2,3-dihydroquinazolin-4(1H)-one] | 6310 |
| COc1cc(F)ccc1N1CN(c2ccc(=O)[nH]c2)C(=O)c2ccc(C(F)(F)F)cc21 [drawing 264, 1-(4-fluoro-2-methoxyphenyl)-3-(6-oxo-1,6-dihydropyridin-3-yl)-7-(trifluoromethyl)-2,3-dihydroquinazolin-4(1H)-one] | 316 |
| Cc1cc(F)ccc1N1CN(c2ccc(=O)n(C)c2)C(=O)c2ccc(C(F)(F)F)cc21 [drawing 265] | 2000 |
| Cc1cc(F)ccc1N1CN(c2ccc(=O)[nH]c2C)C(=O)c2cc(C(F)(F)F)cnc21 [drawing 266, 1-(4-fluoro-2-methylphenyl)-3-(2-methyl-6-oxo-1,6-dihydropyridin-3-yl)-6-(trifluoromethyl)-2,3-dihydropyrido[2,3-d]pyrimidin-4(1H)-one] | 158 |
| Cc1cc(F)ccc1N1CN(c2ccc(=O)[nH]c2)C(=O)c2c1cccc2C(F)(F)F [drawing 267, 1-(4-fluoro-2-methylphenyl)-3-(6-oxo-1,6-dihydropyridin-3-yl)-5-(trifluoromethyl)-2,3-dihydroquinazolin-4(1H)-one] | 2510 |
| Cc1cc(F)ccc1N1CN(c2ccc(=O)[nH]c2C)C(=O)c2ccc(C(F)(F)F)cc21 [drawing 268, 1-(4-fluoro-2-methylphenyl)-3-(2-methyl-6-oxo-1,6-dihydropyridin-3-yl)-7-(trifluoromethyl)-2,3-dihydroquinazolin-4(1H)-one] | 20 |

Now from value to compound:

| IC50 [nM] | Structure (SMILES) |
| --- | --- |
| 316 | Cc1cc(F)ccc1N1CN(c2ccc(=O)[nH]c2)C(=O)c2cc(C(F)(F)F)ccc21 [drawing 269, 1-(4-fluoro-2-methylphenyl)-3-(6-oxo-1,6-dihydropyridin-3-yl)-6-(trifluoromethyl)-2,3-dihydroquinazolin-4(1H)-one] |
| 2510 | Cc1cc(F)cc(C)c1N1CN(c2ccc(=O)[nH]c2)C(=O)c2ccc(C(F)(F)F)cc21 [drawing 270, 1-(4-fluoro-2,6-dimethylphenyl)-3-(6-oxo-1,6-dihydropyridin-3-yl)-7-(trifluoromethyl)-2,3-dihydroquinazolin-4(1H)-one] |
| 631 | Cc1cc(F)ccc1N1CN(c2c[nH]c(=O)c(C)c2)C(=O)c2ccc(C(F)(F)F)cc21 [drawing 271, 1-(4-fluoro-2-methylphenyl)-3-(5-methyl-6-oxo-1,6-dihydropyridin-3-yl)-7-(trifluoromethyl)-2,3-dihydroquinazolin-4(1H)-one] |
| 7940 | O=C1c2ccc(C(F)(F)F)cc2N(Cc2ccc(F)cc2)CN1c1ccc(=O)[nH]c1 [drawing 272, 1-(4-fluorobenzyl)-3-(6-oxo-1,6-dihydropyridin-3-yl)-7-(trifluoromethyl)-2,3-dihydroquinazolin-4(1H)-one] |
| 398 | Cc1cc(=O)[nH]cc1N1CN(c2ccc(F)cc2C)c2cc(C(F)(F)F)ccc2C1=O [drawing 273, 1-(4-fluoro-2-methylphenyl)-3-(4-methyl-6-oxo-1,6-dihydropyridin-3-yl)-7-(trifluoromethyl)-2,3-dihydroquinazolin-4(1H)-one] |
| 25.1 | Cc1cc(OC(F)(F)F)ccc1N1CN(c2ccc(=O)[nH]c2C)C(=O)c2cc(C(F)(F)F)cnc21 [drawing 274, 1-(2-methyl-4-(trifluoromethoxy)phenyl)-3-(2-methyl-6-oxo-1,6-dihydropyridin-3-yl)-6-(trifluoromethyl)-2,3-dihydropyrido[2,3-d]pyrimidin-4(1H)-one] |
| 1260 | Cc1cc(F)ccc1N1c2cc(C(F)(F)F)ccc2C(=O)N(c2ccc(=O)[nH]c2)C1C (stereo not shown) [drawing 275, 1-(4-fluoro-2-methylphenyl)-2-methyl-3-(6-oxo-1,6-dihydropyridin-3-yl)-7-(trifluoromethyl)-2,3-dihydroquinazolin-4(1H)-one] |
| 501 | O=C1c2ccc(C(F)(F)F)cc2N(c2ccc(F)cc2Cl)CN1c1ccc(=O)[nH]c1 [drawing 276, 1-(2-chloro-4-fluorophenyl)-3-(6-oxo-1,6-dihydropyridin-3-yl)-7-(trifluoromethyl)-2,3-dihydroquinazolin-4(1H)-one] |
| 6310 | O=C1c2ccc(C(F)(F)F)cc2N(c2ccc(F)cc2OCCO)CN1c1ccc(=O)[nH]c1 [drawing 277, 1-(4-fluoro-2-(2-hydroxyethoxy)phenyl)-3-(6-oxo-1,6-dihydropyridin-3-yl)-7-(trifluoromethyl)-2,3-dihydroquinazolin-4(1H)-one] |
| 794 | O=C1c2ccc(C(F)(F)F)cc2N(c2ccc(F)cc2F)CN1c1ccc(=O)[nH]c1 [drawing 278, 1-(2,4-difluorophenyl)-3-(6-oxo-1,6-dihydropyridin-3-yl)-7-(trifluoromethyl)-2,3-dihydroquinazolin-4(1H)-one] |
| 1580 | Cc1cc(F)ccc1N1CN(c2ccc(=O)[nH]c2)C(=O)c2ccc(C#N)cc21 [drawing 279, 1-(4-fluoro-2-methylphenyl)-4-oxo-3-(6-oxo-1,6-dihydropyridin-3-yl)-1,2,3,4-tetrahydroquinazoline-7-carbonitrile] |
| 251 | CCc1cc(F)ccc1N1CN(c2ccc(=O)[nH]c2)C(=O)c2ccc(C(F)(F)F)cc21 [drawing 280, 1-(2-ethyl-4-fluorophenyl)-3-(6-oxo-1,6-dihydropyridin-3-yl)-7-(trifluoromethyl)-2,3-dihydroquinazolin-4(1H)-one] |

Same assay, conditions: at least one set of experimental runs; read-out: average pIC50 value against Nav1.8 (converted)

| IC50 [nM] | Structure (SMILES) |
| --- | --- |
| ≤ 100 | Cc1[nH]c(=O)ccc1N1CN([C@H]2CCCC[C@@H]2C)c2cc(C(F)(F)F)ccc2C1=O [Example 279, 3-(2-Methyl-6-oxo-1,6-dihydropyridin-3-yl)-1-((1S,2S)-2-methylcyclohexyl)-7-(trifluoromethyl)-2,3-dihydroquinazolin-4(1H)-one] |
| 126 to 631 | Cc1[nH]c(=O)ccc1N1CN([C@@H]2CCCC[C@H]2C)c2cc(C(F)(F)F)ccc2C1=O [Example 280, 3-(2-Methyl-6-oxo-1,6-dihydropyridin-3-yl)-1-((1R,2R)-2-methylcyclohexyl)-7-(trifluoromethyl)-2,3-dihydroquinazolin-4(1H)-one] |
| 126 to 631 | Cc1[nH]c(=O)ccc1N1CN([C@H]2CCOC[C@H]2C)c2cc(C(F)(F)F)ccc2C1=O [Example 281, 3-(2-Methyl-6-oxo-1,6-dihydropyridin-3-yl)-1-((3S,4S)-3-methyltetrahydro-2H-pyran-4-yl)-7-(trifluoromethyl)-2,3-dihydroquinazolin-4(1H)-one] |
| 794 to 7940 | Cc1[nH]c(=O)ccc1N1CN([C@@H]2CCOC[C@@H]2C)c2cc(C(F)(F)F)ccc2C1=O [Example 282, 3-(2-Methyl-6-oxo-1,6-dihydropyridin-3-yl)-1-((3R,4R)-3-methyltetrahydro-2H-pyran-4-yl)-7-(trifluoromethyl)-2,3-dihydroquinazolin-4(1H)-one] |
| 126 to 631 | Cc1[nH]c(=O)ccc1N1CN([C@H]2CCOC[C@@H]2C)c2cc(C(F)(F)F)ccc2C1=O [Example 283, 3-(2-Methyl-6-oxo-1,6-dihydropyridin-3-yl)-1-((3R,4S)-3-methyltetrahydro-2H-pyran-4-yl)-7-(trifluoromethyl)-2,3-dihydroquinazolin-4(1H)-one] |
| 794 to 7940 | Cc1[nH]c(=O)ccc1N1CN([C@@H]2CCOC[C@H]2C)c2cc(C(F)(F)F)ccc2C1=O [Example 284, 3-(2-Methyl-6-oxo-1,6-dihydropyridin-3-yl)-1-((3S,4R)-3-methyltetrahydro-2H-pyran-4-yl)-7-(trifluoromethyl)-2,3-dihydroquinazolin-4(1H)-one] |
| 794 to 7940 | Cc1cc(F)ccc1N1CN([C@H]2CCC(=O)N[C@H]2C)C(=O)c2ccc(C(F)(F)F)cc21 [Example 287, 1-(4-Fluoro-2-methylphenyl)-3-((2S,3S)-2-methyl-6-oxopiperidin-3-yl)-7-(trifluoromethyl)-2,3-dihydroquinazolin-4(1H)-one] |
| 126 to 631 | Cc1cc(F)ccc1N1CN([C@@H]2CCC(=O)N[C@@H]2C)C(=O)c2ccc(C(F)(F)F)cc21 [Example 288, 1-(4-Fluoro-2-methylphenyl)-3-((2R,3R)-2-methyl-6-oxopiperidin-3-yl)-7-(trifluoromethyl)-2,3-dihydroquinazolin-4(1H)-one] |
| ≤ 100 | Cc1cc(F)ccc1N1CN(c2ccc(=O)[nH]c2C)C(=O)c2cc(C(F)(F)F)ccc21 [Example 297, 1-(4-fluoro-2-methylphenyl)-3-(2-methyl-6-oxo-1,6-dihydropyridin-3-yl)-6-(trifluoromethyl)-2,3-dihydroquinazolin-4(1H)-one] |
| ≤ 100 | Cc1cc(OC(F)(F)F)ccc1N1CN(c2ccc(=O)[nH]c2C)C(=O)c2cc(C(F)(F)F)cnc21 [Example 298, 1-(2-methyl-4-(trifluoromethoxy)phenyl)-3-(2-methyl-6-oxo-1,6-dihydropyridin-3-yl)-6-(trifluoromethyl)-2,3-dihydropyrido[2,3-d]pyrimidin-4(1H)-one] |
| 126 to 631 | Cc1cc(F)ccc1N1CN(c2ccc(=O)[nH]c2C)C(=O)c2cc(C(F)(F)F)cnc21 [Example 299, 1-(4-fluoro-2-methylphenyl)-3-(2-methyl-6-oxo-1,6-dihydropyridin-3-yl)-6-(trifluoromethyl)-2,3-dihydropyrido[2,3-d]pyrimidin-4(1H)-one] |
